The test system of data set [1] is bloodstream form of T. b. brucei strain 427. As to the kind of experiment: Viability assay for T. b. brucei (whole parasite, bioluminescence). It counts as cell-based. The settings on record: 24 h; for T. b. brucei (BS) proliferation [% at 10 μM]: 10 μM compound; for EC50: Trypanosoma brucei, read-out: T. b. brucei (BS) [EC50. The protocol:
Viability assay for T. b. brucei. The bloodstream form of the monomorphic T. b. brucei strain 427, cell line 5141313, constitutively and stably expressing an ectopic copy of the Photinus pyralis red-shifted luciferase, was cultured in vitro with HMI-9 medium, supplemented with 10% fetal bovine serum, 10 U/mL penicillin (Gibco), 10 μg/mL streptomycin (Gibco), 0.2 μg/mL bleomycin (Jena Bioscience), 4 μg/mL G418 disulfate salt (Sigma-Aldrich) and 0.2 μg/mL puromycin (Invitrogen), inside a humidified incubator (Thermo Fisher Scientific) with controlled temperature (37°C) and CO2 (5%) in a 25 or 75 cm^2 vented-cap culture-flask. The anti-trypanosomal activity of compounds was evaluated in a 96-well culture plate containing 2.2 μL/well DMSO (negative control) or compounds dissolved in DMSO (1% final concentration), and 220 μL/well of a suspension of 1 × 10^5 parasites/mL. The plates were incubated at 37°C and 5% CO2 for 24 h. Next, each well was transferred to a 96-well black plate, and 20 μL of a solution containing d-luciferin (1.5 mg/mL in PBS glucose 1% w/v) and Triton X-100 (0.05% v/v) was added. Bioluminescence signal was measured in a LUMIstar OPTIMA Microplate luminometer using the following settings: 10 s shaking, 5 s/well acquisition, 0.2 s measurement delay, maximum gain, and 37°C. For the bioluminescence assay, parasite viability was calculated according to the following formula: parasiteviability%=BLcpd-BLblank/BLneg-BLblank*100%
BL refers to the mean of bioluminescence signal corresponding to the tested compound (cpd), the blank (blank, complete media containing 1% v/v DMSO), or the negative control (neg, parasites treated with 1% v/v DMSO). EC50 values were determined from concentration-response curves fitted to a four-parameter sigmoid equation using the GraphPad Prism software (version 6.0). All errors are expressed as one SD, estimated as σ^n-1. For a detailed explanation of the protocol, see Dibello et al..

The subject of data set [2] is murine macrophages J774.A1. Put plainly: Cytotoxicity assays on murine macrophages (WST-1). It counts as cell-based. As to conditions: error 1 SD. The protocol:
Cytotoxicity assays on murine macrophages. Murine macrophages from the cell line J774.A1 (ATCC® TIB-67TM) were cultivated under a humidified 5% CO2/95% air atmosphere at 37°C in Dulbecco’s modified Eagle’s medium (DMEM) supplemented with 10% (v/v) FBS, 10 U/mL penicillin and 10 μg/mL streptomycin. The experimental protocol for the determination of EC50 values was identical as described by Demoro et al. 2012 [71], with the following change: 200 μL/well of a cell suspension at 6 × 10^4 cells per mL was added in a 96-well culture plate and washed with 150 μL of DMEM. The cytotoxicity of the compounds was evaluated in triplicate using the WST-1 reagent (Roche). The control treatment included cells cultured in the presence of DMSO 1% (v/v). Absorbance at 450 nm (Ai 450 nm), corresponding to the formazan dye produced by metabolically active cells, was measured with an EL 800-microplate reader. The corrected absorbance values at 450 nm (Ai c 450 nm) were obtained by subtracting the corresponding absorbance value at 630 nm (Ai 630 nm) and the blank average (Ablank 450 nm): Aic450nm=Ai450nm-Ai630nm-Ablank450nm
Cell viability (%), with the number of viable cells proportional to the absorbance, was calculated as follows: cellviability%=Aic450nm/Anegativecontrolc450nm*100%
Ai c 450 nm refers to an absorbance obtained from cells treated with compound I at a specific concentration (i) and Anegative control c 450 nm refers to an absorbance obtained from cells in the DMSO-treated control (negative control). The errors were calculated using error propagations and are expressed as one SD, estimated as σ^n−1.
(In general: Tetrazolium dyes change colour on reduction, which living cells bring about.)

On to `CNCCNC(=O)CN1C(=O)Cc2c([nH]c3ccc(I)cc23)-c2ccc(Cl)cc21` [1f, 2-(3-Chloro-9-iodo-6-oxo-7,12-dihydrobenzo[2,3]azepino[4,5-b]indol-5(6H)-yl)-N-[2-(methylamino)ethyl]acetamide], for which, in data set [1], the “T. b. brucei (BS) proliferation [% at 10 μM]” value (“T. b. brucei … [% at 10 μM]” below) is recorded as 0.0 ± 1.7% and the EC50 is 6.4 ± 1.7 µM. For the same molecule, the “Macrophage toxicity [% at stated conc.]” value in data set [2] (% cell death at 60 μM) stood at 105.8 ± 0.2%.
For `CNCCNC(=O)CN1C(=O)Cc2c([nH]c3ccc(C(F)(F)F)cc23)-c2ccc(Cl)cc21` [1h, 2-(3-Chloro-6-oxo-9-trifluoromethyl-7,12-dihydrobenzo[2,3]azepino[4,5-b]indol-5(6H)-yl)-N-[2-(methylamino)ethyl]acetamide], in data set [1], the “T. b. brucei … [% at 10 μM]” value was 0.9 ± 1.3% and the 50% effective concentration (EC50) is 6.6 ± 1.1 µM. In addition, the “Macrophage toxicity [% at stated conc.]” value in data set [2] (% cell death at 60 μM) came to 102.8 ± 0.4%.
Turning to `CNCCNC(=O)CN1C(=O)Cc2c([nH]c3ccc(Cl)cc23)-c2ccc(Cl)cc21` [1g, 2-(3,9-Dichloro-6-oxo-7,12-dihydrobenzo[2,3]azepino[4,5-b]indol-5(6H)-yl)-N-[2-(methylamino)ethyl]acetamide], in data set [1], the “T. b. brucei … [% at 10 μM]” value is reported as 0.0 ± 0.3% and the EC50 came out at 4.7 ± 1.1 µM. Besides, the “Macrophage toxicity [% at stated conc.]” value in data set [2] (% cell death at 50 μM) was found to be 101.9 ± 3.6%.

Usually EC50 stands for the concentration giving half of the maximal effect.
